# US20230049952A1, “METHODS AND COMPOUNDS FOR RESTORING MUTANT P53 FUNCTION” (PMV Pharmaceuticals, Inc., priority 2020, published 2023)
# Tested on: p53 signaling pathway in MT373 tumors
# Assay: MT373 syngeneic sarcoma model: mouse p53 signaling pathway profiling panel
# Type: in vivo
structure (smiles),measurement,setting,value
"CCn1c(C#CCNc2ccccc2)cc2cc(CNC3CCN(C)CC3)ccc21 [Compound 1, 1-Anilino-3-{1-ethyl-5-[(1-methyl-4-piperidylamino)methyl]-1H-indol-2-yl}-2-propyne]",Hif1a fold increase or percent reduction vs vehicle control,"75 mg/kg BIDx1, 72 h",1.19 fold or %
same,Il6 fold increase or percent reduction vs vehicle control,"75 mg/kg BIDx1, 72 h",65.67 fold or %
same,Jun fold increase or percent reduction vs vehicle control,"75 mg/kg BIDx1, 72 h",25.77 fold or %
same,Kras fold increase or percent reduction vs vehicle control,"75 mg/kg BIDx1, 72 h",1.09 fold or %
same,Lig4 fold increase or percent reduction vs vehicle control,"75 mg/kg BIDx1, 72 h",1.12 fold or %
same,Mdm2 fold increase or percent reduction vs vehicle control,"75 mg/kg BIDx1, 72 h",2.80 fold or %
same,Mdm4 fold increase or percent reduction vs vehicle control,"75 mg/kg BIDx1, 72 h",14.78 fold or %
same,Mel1 fold increase or percent reduction vs vehicle control,"75 mg/kg BIDx1, 72 h",21.11 fold or %
same,Mlh1 fold increase or percent reduction vs vehicle control,"75 mg/kg BIDx1, 72 h",4.80 fold or %
same,Msh2 fold increase or percent reduction vs vehicle control,"75 mg/kg BIDx1, 72 h",16.07 fold or %
same,Myod1 fold increase or percent reduction vs vehicle control,"75 mg/kg BIDx1, 72 h",2.73 fold or %
same,Nf1 fold increase or percent reduction vs vehicle control,"75 mg/kg BIDx1, 72 h",21.43 fold or %
same,Nfkb1 fold increase or percent reduction vs vehicle control,"75 mg/kg BIDx1, 72 h",1.73 fold or %
same,Pcna fold increase or percent reduction vs vehicle control,"75 mg/kg BIDx1, 72 h",23.22 fold or %
same,Pmaip1 fold increase or percent reduction vs vehicle control,"75 mg/kg BIDx1, 72 h",1.03 fold or %
same,Ppm1d fold increase or percent reduction vs vehicle control,"75 mg/kg BIDx1, 72 h",5.34 fold or %
same,Prc1 fold increase or percent reduction vs vehicle control,"75 mg/kg BIDx1, 72 h",6.02 fold or %
same,Prkca fold increase or percent reduction vs vehicle control,"75 mg/kg BIDx1, 72 h",6.98 fold or %
same,Pten fold increase or percent reduction vs vehicle control,"75 mg/kg BIDx1, 72 h",3.49 fold or %
same,Pttg1 fold increase or percent reduction vs vehicle control,"75 mg/kg BIDx1, 72 h",1.03 fold or %
same,Rb1 fold increase or percent reduction vs vehicle control,"75 mg/kg BIDx1, 72 h",3.16 fold or %
same,Rela fold increase or percent reduction vs vehicle control,"75 mg/kg BIDx1, 72 h",4.69 fold or %
same,Rprm fold increase or percent reduction vs vehicle control,"75 mg/kg BIDx1, 72 h",1.34 fold or %
same,Serpinb5 fold increase or percent reduction vs vehicle control,"75 mg/kg BIDx1, 72 h",15.52 fold or %
same,Sesn2 fold increase or percent reduction vs vehicle control,"75 mg/kg BIDx1, 72 h",1.11 fold or %
same,Sfn fold increase or percent reduction vs vehicle control,"75 mg/kg BIDx1, 72 h",8.30 fold or %
same,Sirt1 fold increase or percent reduction vs vehicle control,"75 mg/kg BIDx1, 72 h",5.18 fold or %
same,Stat1 fold increase or percent reduction vs vehicle control,"75 mg/kg BIDx1, 72 h",1.58 fold or %
same,Tnf fold increase or percent reduction vs vehicle control,"75 mg/kg BIDx1, 72 h",1.28 fold or %
same,Traf1 fold increase or percent reduction vs vehicle control,"75 mg/kg BIDx1, 72 h",1.16 fold or %
same,Trp53bp2 fold increase or percent reduction vs vehicle control,"75 mg/kg BIDx1, 72 h",7.94 fold or %
same,Trp53 fold increase or percent reduction vs vehicle control,"75 mg/kg BIDx1, 72 h",1.11 fold or %
same,Bbc3 mRNA increase,"75 mg/kg BID×1, 24 h",1.80 fold
same,Birc5 mRNA decrease,"75 mg/kg BID×1, 24 h",45.92%
same,Ccng1 mRNA increase,"75 mg/kg BID×1, 24 h",4.63 fold
same,Cdc25c mRNA decrease,"75 mg/kg BID×1, 24 h",60.54%
same,Cdk1 mRNA decrease,"75 mg/kg BID×1, 24 h",59.92%
same,Cdkn1a mRNA increase,"75 mg/kg BID×1, 24 h",5.16 fold
same,Chek1 mRNA decrease,"75 mg/kg BID×1, 24 h",52.36%
same,Egfr mRNA change,"75 mg/kg BID×1, 24 h",28.18%
same,Il6 mRNA change,"75 mg/kg BID×1, 24 h",70.78%
same,Mdm2 mRNA increase,"75 mg/kg BID×1, 24 h",2.76 fold
same,Sesn2 mRNA increase,"75 mg/kg BID×1, 24 h",2.05 fold
same,Zmat3 mRNA increase,"75 mg/kg BID×1, 24 h",4.14 fold
same,Apex1 fold increase or percent reduction vs vehicle control,"150 mg/kg BIDx1, 8 h",27.35 fold or %
same,Atm fold increase or percent reduction vs vehicle control,"150 mg/kg BIDx1, 8 h",22.22 fold or %
same,Atr fold increase or percent reduction vs vehicle control,"150 mg/kg BIDx1, 8 h",27.07 fold or %
same,Bag1 fold increase or percent reduction vs vehicle control,"150 mg/kg BIDx1, 8 h",23.32 fold or %
same,Bax fold increase or percent reduction vs vehicle control,"150 mg/kg BIDx1, 8 h",1.68 fold or %
same,Bbc3 fold increase or percent reduction vs vehicle control,"150 mg/kg BIDx1, 8 h",1.97 fold or %
same,Bcl2 fold increase or percent reduction vs vehicle control,"150 mg/kg BIDx1, 8 h",28.71 fold or %
same,Bid fold increase or percent reduction vs vehicle control,"150 mg/kg BIDx1, 8 h",12.20 fold or %
same,Birc5 fold increase or percent reduction vs vehicle control,"150 mg/kg BIDx1, 8 h",26.07 fold or %
same,Brca1 fold increase or percent reduction vs vehicle control,"150 mg/kg BIDx1, 8 h",34.27 fold or %
same,Brca2 fold increase or percent reduction vs vehicle control,"150 mg/kg BIDx1, 8 h",36.90 fold or %
same,Btg2 fold increase or percent reduction vs vehicle control,"150 mg/kg BIDx1, 8 h",13.04 fold or %
same,Casp2 fold increase or percent reduction vs vehicle control,"150 mg/kg BIDx1, 8 h",34.08 fold or %
same,Ccnb1 fold increase or percent reduction vs vehicle control,"150 mg/kg BIDx1, 8 h",15.72 fold or %
same,Ccne1 fold increase or percent reduction vs vehicle control,"150 mg/kg BIDx1, 8 h",40.62 fold or %
same,Ccng1 fold increase or percent reduction vs vehicle control,"150 mg/kg BIDx1, 8 h",6.49 fold or %
same,Ccnh fold increase or percent reduction vs vehicle control,"150 mg/kg BIDx1, 8 h",29.12 fold or %
same,Cdc25a fold increase or percent reduction vs vehicle control,"150 mg/kg BIDx1, 8 h",34.26 fold or %
same,Cdk1 fold increase or percent reduction vs vehicle control,"150 mg/kg BIDx1, 8 h",39.81 fold or %
same,Cdk4 fold increase or percent reduction vs vehicle control,"150 mg/kg BIDx1, 8 h",47.61 fold or %
same,Cdkn1a fold increase or percent reduction vs vehicle control,"150 mg/kg BIDx1, 8 h",8.66 fold or %
same,Cdkn2a fold increase or percent reduction vs vehicle control,"150 mg/kg BIDx1, 8 h",42.49 fold or %
same,Chek1 fold increase or percent reduction vs vehicle control,"150 mg/kg BIDx1, 8 h",41.91 fold or %
same,Cradd fold increase or percent reduction vs vehicle control,"150 mg/kg BIDx1, 8 h",36.95 fold or %
same,Cul9 fold increase or percent reduction vs vehicle control,"150 mg/kg BIDx1, 8 h",26.00 fold or %
same,Dapk1 fold increase or percent reduction vs vehicle control,"150 mg/kg BIDx1, 8 h",2.02 fold or %
same,Dnmt1 fold increase or percent reduction vs vehicle control,"150 mg/kg BIDx1, 8 h",17.37 fold or %
same,E2f1 fold increase or percent reduction vs vehicle control,"150 mg/kg BIDx1, 8 h",27.89 fold or %
same,E2f3 fold increase or percent reduction vs vehicle control,"150 mg/kg BIDx1, 8 h",27.45 fold or %
same,Egfr fold increase or percent reduction vs vehicle control,"150 mg/kg BIDx1, 8 h",39.84 fold or %
same,Egr1 fold increase or percent reduction vs vehicle control,"150 mg/kg BIDx1, 8 h",53.86 fold or %
same,Ep300 fold increase or percent reduction vs vehicle control,"150 mg/kg BIDx1, 8 h",11.02 fold or %
same,Ercc1 fold increase or percent reduction vs vehicle control,"150 mg/kg BIDx1, 8 h",16.08 fold or %
same,Esr1 fold increase or percent reduction vs vehicle control,"150 mg/kg BIDx1, 8 h",14.42 fold or %
same,Fadd fold increase or percent reduction vs vehicle control,"150 mg/kg BIDx1, 8 h",31.64 fold or %
same,Fas fold increase or percent reduction vs vehicle control,"150 mg/kg BIDx1, 8 h",2.12 fold or %
same,Fasl fold increase or percent reduction vs vehicle control,"150 mg/kg BIDx1, 8 h",3.98 fold or %
same,Foxo3 fold increase or percent reduction vs vehicle control,"150 mg/kg BIDx1, 8 h",1.15 fold or %
same,Gadd45a fold increase or percent reduction vs vehicle control,"150 mg/kg BIDx1, 8 h",23.94 fold or %
same,Hif1a fold increase or percent reduction vs vehicle control,"150 mg/kg BIDx1, 8 h",1.07 fold or %
